Results: the CheMixHub ionic liquid set

Assay: xn = mol fraction of the nth substance listed

CS(=O)(=O)[O-].C[N+](C)(CCO)CCO + CCO
viscosity [mPa·s], 101 kPa
Settings | x1 = 0.099 | x1 = 0.2 | x1 = 0.2984 | x1 = 0.4 | x1 = 0.5005 | x1 = 0.6011 | x1 = 0.7008 | x1 = 0.7993 | x1 = 0.8954 | x1 = 1
298.15 K | 3.21 | 8.15 | 18.5 | 39.7 | 80.7 | 176 | 319 | 556 | 950 | 1495
303.15 K | 2.89 | 7.02 | 15.54 | 32.2 | 63.3 | 133.2 | 236 | 399 | 664 | 1021
308.15 K | 2.61 | 6.13 | 13.16 | 26.5 | 50.5 | 92.7 | 178 | 293 | 476 | 716
313.15 K | 2.32 | 5.38 | 11.4 | 22.1 | 41 | 73.2 | 136.8 | 221 | 350 | 513
318.15 K | 2.13 | 4.76 | 9.92 | 18.6 | 33.7 | 58.6 | 106.9 | 169 | 262 | 378
323.15 K | 1.9 | 4.24 | 8.58 | 15.85 | 28 | 47.6 | 76.5 | 132.1 | 201 | 282

CC(=O)[O-].CCC[NH3+] + O
298.15 K, 101 kPa
Settings | electrical conductivity [S/m]
x1 = 0.0032 | 0.713
x1 = 0.005 | 0.905
x1 = 0.0101 | 1.43
x1 = 0.0169 | 1.47
x2 = 0 | 0.043
x2 = 0.1576 | 0.082
x2 = 0.3525 | 0.165
x2 = 0.5506 | 0.401
x2 = 0.6999 | 0.685
x2 = 0.7885 | 0.937
x2 = 0.8198 | 1.06
x2 = 0.8501 | 1.18
x2 = 0.8849 | 1.34
x2 = 0.9041 | 1.44
x2 = 0.9082 | 1.47
x2 = 0.9305 | 1.59
x2 = 0.9455 | 1.65
x2 = 0.965 | 1.65
x2 = 0.9742 | 1.61

CN1CCN(C)C1=O + CCCCCC[n+]1ccn(C)c1.[Cl-]
100 kPa
Settings | viscosity [mPa·s]
288.15 K, x2 = 0 | 2.368
288.15 K, x2 = 0.1007 | 6.33
303.15 K, x2 = 0.1999 | 9.99
308.15 K, x2 = 0 | 1.616
308.15 K, x2 = 0.1999 | 8.56
308.15 K, x2 = 0.3856 | 44.3
318.15 K, x2 = 0.6969 | 182
323.15 K, x2 = 0.1007 | 2.8
323.15 K, x2 = 0.2985 | 12.78
323.15 K, x2 = 0.4985 | 45.7
328.15 K, x2 = 0 | 1.195
333.15 K, x2 = 0.2985 | 9.67

CCCCCC[n+]1ccn(C)c1.O=[N+]([O-])c1cn[n-]c1 + CCCCCCCC[P+](CC)(CC)CC.O=S(=O)([N-]S(=O)(=O)C(F)(F)F)C(F)(F)F
Settings | viscosity [mPa·s]
288.15 K, 100 kPa, x2 = 0.1 | 770

O=S(=O)([N-]S(=O)(=O)C(F)(F)F)C(F)(F)F.[Li+] + COC(=O)OC + CCC(=O)OC
Settings | viscosity [mPa·s]
298.15 K, 100 kPa, x1 = 0.333, x2 = 0.667 | 53.7

CCCC[n+]1ccn(C)c1.C[C@H](N)C(=O)[O-] + O
viscosity [mPa·s], 100.3 kPa
Settings | 288.15 K | 293.15 K | 298.15 K | 303.15 K | 308.15 K | 313.15 K | 318.15 K | 323.15 K | 328.15 K
x1 = 0.0002936 | 1.156 | 1.017 | 0.9 | 0.81 | 0.726 | 0.661 | 0.604 | 0.554 | 0.511
x1 = 0.0003927 | 1.162 | 1.022 | 0.907 | 0.813 | 0.732 | 0.664 | 0.606 | 0.557 | 0.513
x1 = 0.0004989 | 1.167 | 1.027 | 0.911 | 0.817 | 0.735 | 0.666 | 0.608 | 0.559 | 0.515
x1 = 0.0009775 | 1.203 | 1.057 | 0.937 | 0.838 | 0.755 | 0.685 | 0.626 | 0.573 | 0.529
x1 = 0.002927 | 1.361 | 1.197 | 1.057 | 0.939 | 0.842 | 0.759 | 0.688 | 0.629 | –
x1 = 0.004981 | 1.513 | 1.326 | 1.163 | 1.028 | 0.917 | 0.827 | 0.749 | 0.685 | –
x1 = 0.007048 | 1.658 | 1.446 | 1.273 | 1.119 | 0.997 | 0.894 | 0.806 | 0.736 | –
x1 = 0.009016 | 1.821 | 1.575 | 1.368 | 1.209 | 1.07 | 0.959 | 0.867 | 0.781 | –
x1 = 0.01103 | 1.957 | 1.697 | 1.477 | 1.301 | 1.147 | 1.027 | 0.929 | 0.832 | –
x1 = 0.01317 | 2.101 | 1.819 | 1.58 | 1.38 | 1.225 | 1.089 | 0.986 | 0.888 | –
x1 = 0.01511 | 2.246 | 1.941 | 1.677 | 1.469 | 1.292 | 1.156 | 1.037 | 0.932 | –
x1 = 0.01781 | 2.459 | 2.107 | 1.825 | 1.598 | 1.393 | 1.253 | 1.115 | 0.999 | –

CCCCn1cc[n+](C)c1C.O=S(=O)([N-]S(=O)(=O)C(F)(F)F)C(F)(F)F + CCCC[n+]1ccn(C)c1C.F[B-](F)(F)F
Settings | electrical conductivity [S/m]
358.15 K, 100 kPa, x1 = 1 | 1.71

CCCCn1cc[n+](C)c1C.O=S(=O)([N-]S(=O)(=O)C(F)(F)F)C(F)(F)F + CC[N+](C)(CC)CCOC.O=S(=O)([N-]S(=O)(=O)C(F)(F)F)C(F)(F)F
100 kPa, x2 = 0
Settings | electrical conductivity [S/m]
298.15 K | 0.237
308.15 K | 0.379
323.15 K | 0.665
328.15 K | 0.777

CCCCCCCCCC[n+]1ccn(C)c1.[Cl-] + CC(C)O
298.15 K, 101.3 kPa, frequency 5e-05 MHz
Settings | electrical conductivity [S/m]
x1 = 0.01207 | 0.0497
x1 = 0.02515 | 0.0872
x1 = 0.03936 | 0.126
x1 = 0.05486 | 0.17
x1 = 0.07184 | 0.218
x1 = 0.09051 | 0.266
x1 = 0.1111 | 0.308
x1 = 0.134 | 0.337
x1 = 0.1597 | 0.348
x1 = 0.1884 | 0.343
x1 = 0.2211 | 0.326
x1 = 0.2583 | 0.312
x1 = 0.3013 | 0.325
x1 = 0.3514 | 0.399
x1 = 0.4106 | 0.584
x1 = 0.4815 | 0.944

O=S(=O)([N-]S(=O)(=O)C(F)(F)F)C(F)(F)F.[Li+] + CC[n+]1ccn(C)c1.O=S(=O)([N-]S(=O)(=O)C(F)(F)F)C(F)(F)F
101 kPa
Settings | electrical conductivity, x2 = 0.6878 [S/m] | electrical conductivity, x2 = 0.746 [S/m] | electrical conductivity, x2 = 0.7874 [S/m] | electrical conductivity, x2 = 0.8765 [S/m] | electrical conductivity, x2 = 0.9376 [S/m] | viscosity, x2 = 0.8 [mPa·s]
288.15 K | 0.094 | 0.146 | 0.189 | 0.351 | 0.461 | –
298.15 K | 0.175 | 0.253 | 0.315 | 0.539 | 0.686 | 89.9
333.15 K | 0.739 | 0.91 | 1.06 | 1.53 | 1.79 | –
358.15 K | – | – | – | – | – | 13.33
